Source: ChEMBL document CHEMBL5346880, “ATP-competitive inhibitors of human DNA topoisomerase IIα with improved antiproliferative activity based on N-phenylpyrrolamide scaffold” (Eur J Med Chem, 2023)
In brackets after ≈: the same amount, converted by molar mass.

Legend:
[1] = Thermodynamic aqueous solubility of compound in PBS buffer at pH 7.4 at 25 degreeC measured after 24 hrs by UPLC analysis; type: physicochemical; details: read-out: Therm_solubility
[2] = system: K562; experiment: Cytotoxicity against human K562 cells assessed as reduction in cell viability at 10 uM by MTT assay; type: functional, cell-based
[3] = biological target: T1, DNA topoisomerase 2-alpha (Homo sapiens, UniProt P11388); experiment: Inhibition of human DNA topoisomerase 2 alpha assessed as relaxation of supercoiled plasmid pNO1 DNA incubated for 30 mins by fluorescence based analysis
[4] = Metabolic stability in rat liver S9 fraction assessed as half life at 100 uM measured upto 120 mins in presence of NADPH by HPLC analysis; type: ADME, subcellular
[5] = system: MCF7; experiment: cells; details: Homo sapiens, MCF7, 72 h
Description: Cytotoxicity against human MCF7 cells assessed as inhibition of cell growth incubated for 72 hrs by MTS assay

[6] = Cytotoxicity against HEK293 cells assessed as inhibition of cell growth incubated for 72 hrs by MTS assay; type: toxicity, cell-based; details: human
[7] = system: HepG2; experiment: cells; details: Homo sapiens, HepG2, 72 h
Description: Cytotoxicity against human HepG2 cells assessed as inhibition of cell growth incubated for 72 hrs by MTS assay

[8] = Selectivity index, ratio of IC50 for HEK293 cells to IC50 for human HepG2 cells; type: toxicity; details: HEK293 cells versus HepG2 cells, read-out: Ratio IC50
[9] = Selectivity index, ratio of IC50 for HEK293 cells to IC50 for human MCF7 cells; type: toxicity; details: HEK293 cells versus MCF7 cells, read-out: Ratio IC50
[10] = biological target: T1, DNA topoisomerase 2-alpha; experiment: Inhibition of human DNA topoisomerase 2 alpha assessed as ATP hydrolysis measured for 30 mins by absorbance based assay
[11] = biological target: T2, DNA topoisomerase 1 (Homo sapiens, UniProt P11387); experiment: Inhibition of human DNA Topoisomerase 1 assessed as relaxation of supercoiled plasmid pBR322 DNA incubated for 30 mins by ethidium bromide staining based agarose gel electrophoresis
T2 sequence (P11387 whole entry): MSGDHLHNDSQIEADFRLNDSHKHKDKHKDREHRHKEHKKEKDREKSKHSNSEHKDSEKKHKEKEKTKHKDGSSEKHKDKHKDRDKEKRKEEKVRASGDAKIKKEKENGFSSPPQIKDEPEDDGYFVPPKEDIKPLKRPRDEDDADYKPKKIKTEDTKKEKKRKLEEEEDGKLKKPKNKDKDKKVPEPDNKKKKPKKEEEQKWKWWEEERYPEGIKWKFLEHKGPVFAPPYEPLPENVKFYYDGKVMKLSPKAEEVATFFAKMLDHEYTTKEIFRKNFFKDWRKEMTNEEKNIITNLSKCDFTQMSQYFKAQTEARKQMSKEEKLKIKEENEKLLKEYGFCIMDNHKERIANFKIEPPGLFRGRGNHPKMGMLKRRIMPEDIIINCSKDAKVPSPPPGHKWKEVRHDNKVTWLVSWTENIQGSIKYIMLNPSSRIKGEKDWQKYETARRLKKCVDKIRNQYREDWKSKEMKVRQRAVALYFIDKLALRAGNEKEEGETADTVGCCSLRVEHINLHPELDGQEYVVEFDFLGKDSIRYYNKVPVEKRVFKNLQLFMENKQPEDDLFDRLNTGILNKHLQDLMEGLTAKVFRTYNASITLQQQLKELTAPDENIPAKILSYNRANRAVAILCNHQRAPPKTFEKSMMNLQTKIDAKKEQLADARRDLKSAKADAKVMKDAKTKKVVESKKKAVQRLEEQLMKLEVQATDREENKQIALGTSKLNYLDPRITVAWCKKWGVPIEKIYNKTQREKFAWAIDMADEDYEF

T1 sequence (P11388 whole entry): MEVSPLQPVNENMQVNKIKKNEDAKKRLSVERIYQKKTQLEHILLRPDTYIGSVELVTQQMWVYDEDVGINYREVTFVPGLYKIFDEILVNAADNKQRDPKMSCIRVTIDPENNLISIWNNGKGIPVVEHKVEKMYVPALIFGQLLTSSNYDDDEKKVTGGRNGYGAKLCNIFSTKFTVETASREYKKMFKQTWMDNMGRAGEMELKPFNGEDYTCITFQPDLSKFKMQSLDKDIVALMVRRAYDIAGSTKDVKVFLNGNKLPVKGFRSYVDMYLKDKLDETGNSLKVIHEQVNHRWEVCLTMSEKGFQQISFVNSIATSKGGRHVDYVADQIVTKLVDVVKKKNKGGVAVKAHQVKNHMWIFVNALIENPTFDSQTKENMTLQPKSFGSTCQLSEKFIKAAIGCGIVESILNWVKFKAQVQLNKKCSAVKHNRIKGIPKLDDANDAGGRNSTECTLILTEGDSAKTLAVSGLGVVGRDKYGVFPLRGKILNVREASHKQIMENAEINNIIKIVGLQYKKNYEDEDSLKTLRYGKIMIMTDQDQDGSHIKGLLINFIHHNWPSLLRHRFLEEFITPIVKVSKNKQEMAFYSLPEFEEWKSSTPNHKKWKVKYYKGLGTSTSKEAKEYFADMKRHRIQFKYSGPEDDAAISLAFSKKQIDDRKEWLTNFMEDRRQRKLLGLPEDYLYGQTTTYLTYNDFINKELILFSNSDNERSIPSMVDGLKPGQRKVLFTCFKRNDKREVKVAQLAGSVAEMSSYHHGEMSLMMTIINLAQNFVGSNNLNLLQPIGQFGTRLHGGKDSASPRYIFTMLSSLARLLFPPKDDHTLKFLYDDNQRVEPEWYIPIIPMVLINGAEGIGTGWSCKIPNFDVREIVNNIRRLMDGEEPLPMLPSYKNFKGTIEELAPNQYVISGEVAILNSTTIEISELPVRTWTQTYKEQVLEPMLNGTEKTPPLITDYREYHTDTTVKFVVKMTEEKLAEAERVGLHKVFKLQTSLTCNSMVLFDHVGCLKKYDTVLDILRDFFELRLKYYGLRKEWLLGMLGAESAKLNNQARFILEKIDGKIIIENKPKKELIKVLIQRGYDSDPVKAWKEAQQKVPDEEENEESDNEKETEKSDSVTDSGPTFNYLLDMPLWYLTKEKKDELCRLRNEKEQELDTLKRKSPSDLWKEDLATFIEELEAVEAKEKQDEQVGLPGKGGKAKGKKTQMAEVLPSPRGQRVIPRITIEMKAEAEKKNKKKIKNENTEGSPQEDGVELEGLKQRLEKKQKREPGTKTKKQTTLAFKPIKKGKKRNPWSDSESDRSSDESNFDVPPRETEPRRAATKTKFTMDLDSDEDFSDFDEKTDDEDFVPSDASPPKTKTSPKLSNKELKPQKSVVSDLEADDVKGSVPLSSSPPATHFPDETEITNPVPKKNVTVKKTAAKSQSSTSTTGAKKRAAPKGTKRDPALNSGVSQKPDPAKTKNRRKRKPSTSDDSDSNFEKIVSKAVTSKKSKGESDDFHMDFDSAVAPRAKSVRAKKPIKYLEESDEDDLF

Structure (SMILES) | IC50 [3] | other results
Cc1[nH]c(C(=O)Nc2ccccc2OCc2cccc(C(=O)NC3CCNC3)c2)c(Cl)c1Cl.Cl (centres undefined) | 6.3 µM | solubility thermodynamic at 24 h [1]: 15 µM; IC50 [2]: 0.57 µM
Cc1[nH]c(C(=O)Nc2ccc(C(N)=O)cc2N2CCOCC2)c(Cl)c1Cl | > 100 µM | 
Cc1[nH]c(C(=O)Nc2ccc(C(=O)N3CCCC(N)C3)cc2OC(C)C)c(Cl)c1Cl (centres undefined) | 32 µM | 
Cc1[nH]c(C(=O)Nc2ccc(C(N)=O)cc2OCc2cccc(C(=O)NCCN)c2)c(Cl)c1Cl.Cl | 1 µM | half-life at 100 µM [4]: > 5 h
Cc1[nH]c(C(=O)Nc2ccc(C(=O)NC3CCCNC3)cc2OC(C)C)c(Cl)c1Cl.Cl (centres undefined) | 1.3 µM | half-life at 100 µM [4]: > 5 h; solubility thermodynamic at 24 h [1]: 4.6 µM
Cc1[nH]c(C(=O)Nc2cc(C(=O)O)ccc2OC2CCNCC2)c(Cl)c1Cl | > 100 µM | 
Cc1[nH]c(C(=O)Nc2ccccc2OCc2cccc(C(=O)NC3CCCNC3)c2)c(Cl)c1Cl.Cl (centres undefined) | 7.7 µM | IC50 [5]: 0.15 µM; IC50 at 72 h [6]: 2.1 µM; IC50 [7]: 0.13 µM; selectivity ratio [8]: 16; half-life at 100 µM [4]: > 5 h; solubility thermodynamic at 24 h [1]: 10 µM; IC50 [2]: 0.19 µM; selectivity ratio [9]: 14
Cc1[nH]c(C(=O)Nc2ccccc2OCc2cccc(C(=O)NCCN)c2)cc1F | > 100 µM | 
COC(=O)[C@@H](C)NC(=O)c1ccc(NC(=O)c2[nH]c(C)c(Cl)c2Cl)c(OC2CCNCC2)c1 | 45 µM | IC50 [5]: 8.7 µM; IC50 [7]: 9.8 µM
Cc1[nH]c(C(=O)Nc2ccc(C(N)=O)cc2NCCN)c(Cl)c1Cl.Cl | > 100 µM | half-life at 100 µM [4]: > 5 h
COc1ccc(NC(=O)c2[nH]c(C)c(Br)c2Br)c(C(=O)NCCc2ccc(C(=O)O)cc2)c1 | 25 µM | 
Cc1[nH]c(C(=O)Nc2ccc(C(=O)NC3CCNCC3)cc2OC(C)C)c(Cl)c1Cl | 4.5 µM | 
Cc1[nH]c(C(=O)Nc2ccc(O)cc2C(=O)NCc2ccc(C(=O)O)cc2)c(Cl)c1Cl | 24 µM | 
Cc1[nH]c(C(=O)Nc2ccc(C(N)=O)cc2OCC(=O)N2CCCC(N)C2)c(Cl)c1Cl (centres undefined) | 8.3 µM | 
NCCNC(=O)c1cccc(COc2ccccc2NC(=O)c2cc(Br)c(Br)[nH]2)c1 | 45 µM | 
Cc1[nH]c(C(=O)Nc2ccccc2OCc2cccc(C(=O)NCCN)c2)cc1Cl | 35 µM | 
Cc1[nH]c(C(=O)Nc2ccc(C(=O)N[C@@H](Cc3ccccc3)C(=O)O)cc2OC(C)C)c(Cl)c1Cl | 5 µM | IC50 [5]: > 50 µM; IC50 [7]: > 50 µM
Cc1[nH]c(C(=O)Nc2ccc(C(=O)N3CCNCC3)cc2OC(C)C)c(Cl)c1Cl | > 100 µM | 
Cc1[nH]c(C(=O)Nc2ccc(C(N)=O)cc2OCc2cccc(C(=O)NCCC(=O)O)c2)c(Cl)c1Cl | 3.4 µM | 
Cc1[nH]c(C(=O)Nc2ccccc2OC2CCNCC2)c(Cl)c1Cl.Cl |  | half-life at 100 µM [4]: > 5 h
Cc1[nH]c(C(=O)Nc2ccccc2OC2CCN(C(=O)OC(C)(C)C)C2)c(Cl)c1Cl (centres undefined) | > 100 µM | 
COc1ccc(NC(=O)c2[nH]c(C)c(Cl)c2Cl)c(C(=O)NCc2ccc(C(=O)O)cc2)c1 | 67 µM | half-life at 100 µM [4]: > 5 h
Cc1[nH]c(C(=O)Nc2ccc(C(N)=O)cc2OCc2cccc(C(=O)NCC(=O)O)c2)c(Cl)c1Cl | 3.5 µM | 
O=C(O)c1ccc(CCNC(=O)c2cc(O)ccc2NC(=O)c2cc(Br)c(Br)[nH]2)cc1 | 22 µM | 
Cc1[nH]c(C(=O)Nc2ccc(C(=O)NCC(=O)O)cc2OC(C)C)c(Cl)c1Cl | 7.2 µM | IC50 [5]: > 50 µM; IC50 [7]: > 50 µM
Cc1[nH]c(C(=O)Nc2cc(C(N)=O)ccc2OC(C)C)c(Cl)c1Cl | > 100 µM | 

Structure (SMILES) | IC50 [3] | other results
NS(=O)(=O)c1ccc(CNC(=O)c2cc(O)ccc2NC(=O)c2cc(Br)c(Br)[nH]2)cc1 | > 100 µM | 
NCCNC(=O)c1cccc(COc2ccccc2NC(=O)c2cc(Cl)c(Cl)[nH]2)c1 | 76 µM | 
Cc1ccc(C(=O)Nc2ccccc2OCc2cccc(C(=O)NCCN)c2)[nH]1 | > 100 µM | 
Cc1[nH]c(C(=O)Nc2ccc(C(N)=O)cc2OCC(=O)N2CCCC(NC(=O)OC(C)(C)C)C2)c(Cl)c1Cl (centres undefined) | > 100 µM | 
Cc1[nH]c(C(=O)Nc2ccc(C(N)=O)cc2N2CCOC(C)C2)c(Cl)c1Cl (centres undefined) | > 100 µM | 
C[C@]12CC[C@H]3[C@@H](CCC4=CC(=O)CC[C@@]43C)[C@@H]1CC[C@@H]2O [TESTOSTERONE] |  | half-life at 100 µM [4]: 0.142 h
Cc1[nH]c(C(=O)Nc2ccccc2OCc2cccc(C(N)=O)c2)c(Cl)c1Cl | > 100 µM | 
Cc1[nH]c(C(=O)Nc2cc(C(N)=O)ccc2OCCN)c(Cl)c1Cl | 18 µM | 
Cc1[nH]c(C(=O)Nc2ccc(C(N)=O)cc2NC(C)C)c(Cl)c1Cl | 13 µM | 
Cc1[nH]c(C(=O)Nc2ccccc2OCc2cccc(C(=O)NCCN)c2)c(Cl)c1Cl.Cl | 3 µM | IC50 [5]: 9 µM; IC50 at 72 h [6]: 27 µM; IC50 [10]: 2.3 µM; IC50 [7]: 15 µM; selectivity ratio [8]: 1.8; half-life at 100 µM [4]: > 5 h; solubility thermodynamic at 24 h [1]: 18 µM; selectivity ratio [9]: 3
Cc1[nH]c(C(=O)Nc2ccccc2OCc2cccc(C(=O)N3CCCC(N)C3)c2)c(Cl)c1Cl (centres undefined) | 27 µM | IC50 [5]: 1.3 µM; IC50 at 72 h [6]: 1.7 µM; IC50 [7]: 1.9 µM; selectivity ratio [8]: 0.9; IC50 [2]: 0.77 µM; selectivity ratio [9]: 1.3
Cc1[nH]c(C(=O)Nc2cc(C(=O)O)ccc2OC2CCN(C(=O)OC(C)(C)C)CC2)c(Cl)c1Cl | 38 µM | 
Cc1[nH]c(C(=O)Nc2ccccc2OC2CCN(C(=O)OC(C)(C)C)CC2)c(Cl)c1Cl | > 100 µM | 
NCCNC(=O)c1cccc(COc2ccccc2NC(=O)c2cc([N+](=O)[O-])c[nH]2)c1 | > 100 µM | 
CCc1nc2nc(Nc3ccc4nc(OCCN5CCOCC5)ccc4c3)nc(NC(C)(C)C)c2[nH]1 | 0.73 µM | IC50 [5]: 7.7 µM; IC50 [7]: 11 µM
CCc1[nH]c(C(=O)Nc2ccccc2OCc2cccc(C(=O)NCCN)c2)nc1Cl | 37 µM | 
Cc1[nH]c(C(=O)Nc2ccc(C(N)=O)cc2OC2CCNCC2)c(Cl)c1Cl.Cl |  | half-life at 100 µM [4]: > 5 h
COc1ccc(NC(=O)c2cc(Br)c(Br)[nH]2)c(C(=O)NCc2ccc(C(=O)O)cc2)c1 | 39 µM | half-life at 100 µM [4]: 4.83 h
CCc1[nH]c(C(=O)Nc2ccc(C(N)=O)cc2OC(C)C)nc1Cl | 6.6 µM | half-life at 100 µM [4]: > 5 h
COc1cc(NS(C)(=O)=O)ccc1Nc1c2ccccc2nc2ccccc12 [AMSACRINE] |  | IC50 [11]: 74 µM
CCNC(=O)Nc1ccc(OC2CCNCC2)c(NC(=O)c2[nH]c(C)c(Cl)c2Cl)c1 | 38 µM | IC50 [5]: 33 µM; IC50 [7]: 38 µM
CCc1cnc(C(=O)Nc2ccc(C(N)=O)cc2OC(C)C)[nH]1 | > 100 µM | 
Cc1[nH]c(C(=O)Nc2ccc(C(=O)NCC3CCNCC3)cc2OC(C)C)c(Cl)c1Cl.Cl | 2.9 µM | solubility thermodynamic at 24 h [1]: 15 µM
Cc1[nH]c(C(=O)Nc2ccccc2OCc2cccc(C(=O)O)c2)c(Cl)c1Cl | 29 µM | solubility thermodynamic at 24 h [1]: 2.1 µM (≈ 0.88 µg/mL)
Cc1[nH]c(C(=O)Nc2cc(C(N)=O)ccc2OC2CCNC2)c(Cl)c1Cl (centres undefined) | 32 µM | 
